{
  "source": "patent US20250381289A1",
  "about": "“EGFR AND C-MET BISPECIFIC BINDING AGENTS, CONJUGATES THEREOF AND METHODS OF USING THE SAME” (GENMAB A/S, priority 2024, published 2025)",
  "data": [
    {"tested_on": "EGFR and cMET co-expressed tumor cell lines (A431, A549, MDA-MB-468, MKN-45, NCI-H441, NCI-H1975)", "experiment": "Binding activity of parent mAbs by flow cytometry", "settings": "flow cytometry on tumor cell lines, FIGS. 1A-1F, Table 5; compared with zalutumumab (zalu) or cetuximab", "description": "EGFR and cMET co-expressed tumor cell lines including A431 (ATCC® CRL-1555), A549 (ATCC® CCL-185, Provided by Procell), MDA-MB-468 (ATCC® HTB-132, Provided by Procell), MKN-45 (CL-0292, Provided by Procell), NCI-H441 (ATCC® HTB-174, Provided by COBIOER), NCI-H1975 (ATCC® CRL-5908, Provided by Procell) were selected for evaluating antibody binding activity by flow cytometry.\nA431 was cultured with DMEM medium (Gibco, Cat #C11995500BT) containing 10% FBS. MDA-MB-468, MKN-45, NCI-H441 and NCI-H1975 were cultured with RPMI 1640 medium (Gibco, Cat #11875093) containing 10% FBS. A549 was cultured with F12K medium (Gibco, Cat #21127030) containing 10% FBS. Each antibody was incubated with different cell lines (1×10^5 cells/well) for 30 min in 0.2 mL FACS buffer (1×PBS with 0.1% BSA) at 4° C. After wash, cells were incubated with 100 μL PE-conjugated anti human Fc (Abcam, Ab98596, 1:500 dilution) for 30 min at 4° C. After wash with PBS, cells were resuspended in FACS buffer and analyzed by flow cytometer (Beckman, CytoFLEX).", "values": [
      {"substance": "Nimotuzumab: parent EGFR mAb; sequences in Table 2 [reference compound]", "binding activity / affinity of parent EGFR mAbs (summary)": "Lower affinity than zalutumumab, no significant"},
      {"substance": "Panitumumab: parent EGFR mAb; sequences in Table 2 [reference compound]", "binding activity / affinity of parent EGFR mAbs (summary)": "Stronger affinity than cetuximab, binding remains"},
      {"substance": "Nectitumumab: parent EGFR mAb; sequences in Table 2 as Necitumumab [reference compound]", "binding activity / affinity of parent EGFR mAbs (summary)": "Stronger affinity than zalu,"}
    ]}
  ]
}
